Reference: ChEMBL document CHEMBL4382234, “Fluoroquinolone-isatin hybrids and their biological activities” (Eur J Med Chem, 2019)
≈ marks a conversion by molar mass, not a printed value.

Key:
[1] = system: Human immunodeficiency virus 1; experiment: Antiviral activity against HIV1 3B infected in human MT4 cells after 5 days by spectrophotometric method; assay type: functional, organism-based; conditions: Human immunodeficiency virus 1, 3B, MT4, 120 h
[2] = system: Mycobacterium tuberculosis; experiment: Antimycobacterial activity against Mycobacterium tuberculosis H37Rv after 3 to 7 days by rapid direct susceptibility test; assay type: functional
[3] = system: Mycobacterium tuberculosis; experiment: Potency index, ratio of rifampicin MIC to test compound MIC for Mycobacterium tuberculosis H37Rv; assay type: functional
[4] = system: Mycobacterium tuberculosis; experiment: Potency index, ratio of gatifloxacin MIC to test compound MIC for Mycobacterium tuberculosis H37Rv; assay type: functional
HepG2 = experiment: Anticancer activity against human HepG2 cells after 48 hrs by MTT assay; assay type: functional, cell-based; conditions: HepG2, 48 h
SW480 = experiment: Anticancer activity against human SW480 cells after 48 hrs by MTT assay; assay type: functional, cell-based; conditions: SW480, 48 h
A549 = experiment: Anticancer activity against human A549 cells after 48 hrs by MTT assay; assay type: functional, cell-based; conditions: A549, 48 h
HeLa = experiment: Anticancer activity against human HeLa cells after 48 hrs by MTT assay; assay type: functional, cell-based
[5] = system: Mycobacterium tuberculosis; experiment: Potency index, ratio of isoniazid MIC to test compound MIC for Mycobacterium tuberculosis H37Rv; assay type: functional
Citrobacter freundii = experiment: Antibacterial activity against Citrobacter freundii by agar dilution method; assay type: functional
Vibrio cholerae = experiment: Antibacterial activity against Vibrio cholerae by agar dilution method; assay type: functional
Pseudomonas aeruginosa = experiment: Antibacterial activity against Pseudomonas aeruginosa by agar dilution method; assay type: functional
Escherichia coli [6] = experiment: Antibacterial activity against Escherichia coli by agar dilution method; assay type: functional
Klebsiella pneumoniae = experiment: Antibacterial activity against Klebsiella pneumoniae by agar dilution method; assay type: functional
Salmonella typhi = experiment: Antibacterial activity against Salmonella typhi by agar dilution method; assay type: functional, Salmonella enterica subsp. enterica serovar Typhi; conditions: Salmonella enterica
[7] = system: Staphylococcus epidermidis; experiment: Antibacterial activity against Staphylococcus epidermidis by agar dilution method; assay type: functional
Staphylococcus aureus = experiment: Antibacterial activity against Staphylococcus aureus by agar dilution method; assay type: functional
Shigella flexneri = experiment: Antibacterial activity against Shigella flexneri by agar dilution method; assay type: functional
[8] = Toxicity in po dosed CF mouse measured after 1 week; assay type: organism-based; conditions: in vivo
Escherichia coli [9] = experiment: Antibacterial activity against Escherichia coli NCTC 10418 infected in po dosed CF mouse measured after 1 week; assay type: functional; conditions: NCTC 10418, po, 168 h
[10] = system: Human immunodeficiency virus 1; experiment: Antiviral activity against HIV1 3B infected in human MT4 cells; assay type: functional, organism-based
[11] = system: Mycobacterium tuberculosis; experiment: Antimycobacterial activity against Mycobacterium tuberculosis H37Rv; assay type: functional

With `CCn1cc(C(=O)O)c(=O)c2cc(F)c(N3CCN(CN4C(=O)/C(=N\NC(N)=S)c5cc(Cl)ccc54)CC3)cc21` the EC50 [1] was 11.3 µg/mL (≈ 19.3 µM).
`CO/N=C1/C(=O)N(CCCN2CCN(c3c(F)cc4c(=O)c(C(=O)O)cn(C5CC5)c4c3OC)CC2C)c2ccc(F)cc21` (configuration not stated) showed an MIC [2] of 0.25 µg/mL (≈ 0.41 µM), a Ratio [3] of 2 and a Ratio [4] of 2.
Work on `CC1CN(c2c(F)c(N)c3c(=O)c(C(=O)O)cn(C4CC4)c3c2F)CC(C)N1CN1C(=O)/C(=N\c2ccc(S(=O)(=O)Nc3ncccn3)cc2)c2ccccc21` (configuration not stated) yielded an IC50 (HepG2) of 18.3 to 50 µg/mL (≈ 23.4 to 63.8 µM), an IC50 (SW480) of 18.3 to 50 µg/mL (≈ 23.4 to 63.8 µM) and an IC50 (A549) of 18.3 to 50 µg/mL (≈ 23.4 to 63.8 µM). It also gave an IC50 (HeLa) of 18.3 to 50 µg/mL (≈ 23.4 to 63.8 µM).
`COc1cc(Cc2cnc(/N=C3\C(=O)N(CN4C(C)CN(c5c(F)c(N)c6c(=O)c(C(=O)O)cn(C7CC7)c6c5F)CC4C)c4ccccc43)nc2N)cc(OC)c1OC` (configuration not stated) showed an IC50 (HepG2) of 18.3 to 50 µg/mL (≈ 22.2 to 60.7 µM), an IC50 (SW480) of 18.3 to 50 µg/mL (≈ 22.2 to 60.7 µM) and an IC50 (A549) of 18.3 to 50 µg/mL (≈ 22.2 to 60.7 µM). It also gave an IC50 (HeLa) of 18.3 to 50 µg/mL (≈ 22.2 to 60.7 µM).
`CO/N=C1/C(=O)N(CCn2cc(CN3CCC[C@H]4CN(c5c(F)cc6c(=O)c(C(=O)O)cn(C7CC7)c6c5OC)C[C@H]43)nn2)c2ccccc21` gave an MIC [2] of 0.1 µg/mL (≈ 0.146 µM), a Ratio [3] of 256 and a Ratio [5] of over 1024.
`CCn1cc(C(=O)O)c(=O)c2cc(F)c(N3CCN(CN4C(=O)C(=O)c5ccccc54)C(C)C3)c(F)c21` (configuration not stated) showed an MIC (Citrobacter freundii) of 0.25 to 2.5 µg/mL (≈ 0.49 to 4.9 µM), an MIC (Vibrio cholerae) of 0.25 to 2.5 µg/mL (≈ 0.49 to 4.9 µM) and an MIC (Pseudomonas aeruginosa) of 0.25 to 2.5 µg/mL (≈ 0.49 to 4.9 µM). The MIC (Escherichia coli [6]) was 0.25 to 2.5 µg/mL (≈ 0.49 to 4.9 µM), the MIC (Klebsiella pneumoniae) was 0.25 to 2.5 µg/mL (≈ 0.49 to 4.9 µM) and the MIC (Salmonella typhi) was 0.25 to 2.5 µg/mL (≈ 0.49 to 4.9 µM). For the same molecule, the MIC [7] was 0.25 to 2.5 µg/mL (≈ 0.49 to 4.9 µM), the MIC (Staphylococcus aureus) was 0.25 to 2.5 µg/mL (≈ 0.49 to 4.9 µM) and the MIC (Shigella flexneri) was 0.25 to 2.5 µg/mL (≈ 0.49 to 4.9 µM).
`CCn1cc(C(=O)O)c(=O)c2cc(F)c(N3CCNCC3)cc21` [NORFLOXACIN] gave an LD50 at 168 h [8] of 4000 mg/kg and an ED50 (Escherichia coli [9]) of 6 mg/kg.
Work on `COc1c(N2CCN(CN3C(=O)/C(=N\c4ccc(S(=O)(=O)Nc5nc(C)cc(C)n5)cc4)c4cc(F)ccc43)C(C)C2)c(F)cc2c(=O)c(C(=O)O)cn(C3CC3)c12` (configuration not stated) yielded an Activity [10] of 106%, an EC50 ([10]; Human immunodeficiency virus 1, 3B, MT4) of 12.1 µg/mL (≈ 14.9 µM) and an MIC [11] of 1.22 µg/mL (≈ 1.5 µM).
Work on `Cc1ccc2c(c1)C(=O)C(=O)N2CN1CCN(c2cc3c(cc2F)c(=O)c(C(=O)O)cn3C2CC2)CC1` yielded an MIC (Citrobacter freundii) of 0.1 to 0.5 µg/mL (≈ 0.198 to 0.991 µM), an MIC (Vibrio cholerae) of 0.1 to 0.5 µg/mL (≈ 0.198 to 0.991 µM) and an MIC (Pseudomonas aeruginosa) of 0.1 to 0.5 µg/mL (≈ 0.198 to 0.991 µM). The MIC (Escherichia coli [6]) was 0.1 to 0.5 µg/mL (≈ 0.198 to 0.991 µM), the MIC (Klebsiella pneumoniae) was 0.1 to 0.5 µg/mL (≈ 0.198 to 0.991 µM) and the MIC (Salmonella typhi) was 0.1 to 0.5 µg/mL (≈ 0.198 to 0.991 µM). The MIC [7] was 0.1 to 0.5 µg/mL (≈ 0.198 to 0.991 µM), the MIC (Staphylococcus aureus) was 0.1 to 0.5 µg/mL (≈ 0.198 to 0.991 µM) and the MIC (Shigella flexneri) was 0.1 to 0.5 µg/mL (≈ 0.198 to 0.991 µM).
Work on `COc1ncnc(NS(=O)(=O)c2ccc(/N=C3\C(=O)N(CN4C(C)CN(c5c(F)c(N)c6c(=O)c(C(=O)O)cn(C7CC7)c6c5F)CC4C)c4ccccc43)cc2)c1OC` (configuration not stated) yielded an IC50 (HepG2) of 18.3 to 33.6 µg/mL (≈ 21.7 to 39.8 µM), an IC50 (SW480) of 18.3 to 33.6 µg/mL (≈ 21.7 to 39.8 µM) and an IC50 (A549) of 18.3 to 33.6 µg/mL (≈ 21.7 to 39.8 µM). For the same molecule, the IC50 (HeLa) was 18.3 to 33.6 µg/mL (≈ 21.7 to 39.8 µM).
